Source: patent US10821115B2, “Compounds that inhibit Mcl-1 protein” (priority 2017, dated 2020)
Where two headings read alike, the source gives them in different places.

Key:
[1] = target: recombinant human Mcl-1 (residues 171-327) / Bim interaction (Homo sapiens (Human), UniProt Q07820); experiment: biochemical; type: binding; conditions: read-out: Mcl-1 HTRF IC50
[2] = system: human multiple myeloma cell line, OPM-2; experiment: Cell viability assay (OPM-2 10 FBS), CellTiter-Glo; type: cell-based
Method in brief: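 Steps: plate cells at 3000/well in 10% FBS growth medium, add serially diluted compound, incubate 16 h at 37 °C with 5% CO2, add detection reagent and read luminescence after 25 min. A 4-parameter logistic model gives IC50.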

[3] = read-out: OPM-2 10% FBS IC50 IP, OPM-2 cells, 10% FBS, 16 h, CellTiter-Glo
[4] = TR-FRET, Mcl-1(171-327) / biotin-Bim (51-76)
[5] = Homo sapiens, OPM-2, 16 h, read-out: OPM-2 10% FBS IC50 IP, OPM-2 cells, 10% FBS, 16 h, CellTiter-Glo
[6] = 0.1 nM Mcl-1(171-327), 0.05 nM biotin-Bim (51-76)
[7] = Homo sapiens, OPM-2, 16 h, read-out: OPM-2 10% FBS IC50 IP, OPM-2 cells, 10% FBS, 16 h incubation

recombinant human Mcl-1 (residues 171-327) / Bim interaction, sequence (Q07820 171-327): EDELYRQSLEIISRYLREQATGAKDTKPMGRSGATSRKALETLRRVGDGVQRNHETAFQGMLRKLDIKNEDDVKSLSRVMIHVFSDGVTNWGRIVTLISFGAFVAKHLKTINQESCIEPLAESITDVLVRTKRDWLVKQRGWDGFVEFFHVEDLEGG

SMILES | IC50 [1, 4] [nM] | IC50 [2, 5] [nM] | other results
C=C(C)[C@@H](O)C[C@]1(OC)/C=C/C[C@H](C)[C@@H](C)S(=O)(=O)NC(=O)c2ccc3c(c2)N(C[C@@H]2CC[C@H]21)C[C@@]1(CCCc2cc(Cl)ccc21)CO3 [Example 100470, (1S,3′R,6′R,7′S,8′E,11′S,12′R)-6-chloro-7′-((2S)-2-hydroxy-3-methyl-3-buten-1-yl)-7′-methoxy-11′,12′-dimethyl-3,4-dihydro-2H,15′H-spiro[naphthalene-1,22′-[20]oxa[13]thia[1,14]diazatetracyclo [14.7.2.0~3,6~.0~19,24~]pentacosa[8,16,18,24]tetraen]-15′-one 13′,13′-dioxide] |  |  | IC50 [1]: 0.576 nM; IC50 [2, 3]: 9650 nM
CN[C@@H]1C[C@H](C)[C@@H](C)S(=O)(=O)NC(=O)c2ccc3c(c2)N(C[C@@H]2CC[C@H]2[C@@](C)(O)C1)C[C@@]1(CCCc2cc(Cl)ccc21)CO3 [Example 100065, (1S,3′R,6′R,7′S,9′R,11′S,12′R)-6-chloro-7′-hydroxy-7′,11′,12′-trimethyl-9′-(methylamino)-3,4-dihydro-2H,15′H-spiro[naphthalene-1,22′-[20]oxa[13]thia[1,14]diazatetracyclo [14.7.2.0~3,6~.0~19,24~]pentacosa[16,18,24]trien]-15′-one 13′,13′-dioxide] | 4.85 |  | IC50 [2, 3]: 7390 nM
COC[C@]1(O)CCC[C@H](C)[C@@H](C)S(=O)(=O)NC(=O)c2ccc3c(c2)N(C[C@@H]2CC[C@H]21)C[C@@]1(CCCc2cc(Cl)ccc21)CO3 (stereo in doubt) [Example 100149, (1S,3′R,6′R,7′S,11′S,12′R)-6-chloro-7′-hydroxy-7′-(methoxymethyl)-11′,12′-dimethyl-3,4-dihydro-2H,15′H-spiro[naphthalene-1,22′-[20]oxa[13]thia[1,14]diazatetracyclo [14.7.2.0~3,6~.0~19,24~]pentacosa[16,18,24]rien]-15′-one 13′,13′-dioxide] | 0.214 | 186 | 
CC(C)CO[C@]1(CN2CCN(C3COC3)CC2)/C=C/C[C@H](C)[C@@H](C)S(=O)(=O)NC(=O)c2ccc3c(c2)N(C[C@@H]2CC[C@H]21)C[C@@]1(CCCc2cc(Cl)ccc21)CO3 [Example 355] |  |  | IC50 [1, 6]: 0.172 nM; IC50 [2, 7]: 272 nM
C[C@@H]1[C@@H](C)CCC[C@]2(OC[C@@H](N(C)C)CO2)[C@@H]2CC[C@H]2CN2C[C@@]3(CCCc4cc(Cl)ccc43)COc3ccc(cc32)C(=O)NS1(=O)=O [Example 100227] | 0.423 | 191 | 
CC[C@@H]1CC/C=C/[C@](C=O)(OC)[C@@H]2CC[C@H]2CN2C[C@@]3(CCCc4cc(Cl)ccc43)COc3ccc(cc32)C(=O)NS1(=O)=O (single isomer, unassigned) [Example 100580] | 0.877 | 6580 | 
CO[C@@]1(C#CCCN2CCN3CCOC[C@@H]3C2)/C=C/C[C@H](C)[C@@H](C)S(=O)(=O)NC(=O)c2ccc3c(c2)N(C[C@@H]2CC[C@H]21)C[C@@]1(CCCc2cc(Cl)ccc21)CO3 [Example 100011, (1 S,3′R,6′R,7′S,8′E,11′S, 12′R)-6-chloro-7′-(4-((9aS)-hexahydropyrazino[2,1-c][1,4]oxazin-8(1H)-yl)-1-butyn-1-yl)-7′-methoxy-11′,12′-dimethyl-3,4-dihydro-2H,15′H-spiro[naphthalene-1,22′-[20]oxa[13]thia[1,14]diazatetracyclo[14.7.2.0-3,6˜.0˜19,24˜]pentacosa[8,16,18,24]tetraen]-15′-one 13′,13′-dioxide] | 0.153 | 134 | 
CO[C@@]1(CN2CCc3ncncc3C2)/C=C/C[C@H](C)[C@@H](C)S(=O)(=O)NC(=O)c2ccc3c(c2)N(C[C@@H]2CC[C@H]21)C[C@@]1(CCCc2cc(Cl)ccc21)CO3 [Example 223, (1S,3′R,6′R,7′S,8′E,11′S,12′R)-6-chloro-7′-(7,8-dihydropyrido[4,3-d]pyrimidin-6(5H)-ylmethyl)-7′-methoxy-11′,12′-dimethyl-3,4-dihydro-2H,15′H-spiro[naphthalene-1,22′-[20]oxa[13]thia[1,14]diazatetracyclo [14.7.2.0~3,6~.0~19,24~]pentacosa[8,16,18,24]tetraen]-15′-one 13′,13′-dioxide] |  |  | IC50 [1, 6]: 0.251 nM; IC50 [2, 7]: 258 nM
COCCOC[C@]1(O)CCC[C@H](C)[C@@H](C)S(=O)(=O)NC(=O)c2ccc3c(c2)N(C[C@@H]2CC[C@H]21)C[C@@]1(CCCc2cc(Cl)ccc21)CO3 [Example 100192, (1S,3′R,6′R,7′S,11′S,12′R)-6-chloro-7′-hydroxy-7′-((2-methoxyethoxy)methyl)-11′,12′-dimethyl-3,4-dihydro-2H,15′H-spiro[naphthalene-1,22′-[20]oxa[13]thia[1,14]diazatetracyclo [14.7.2.0~3,6~.0~19,24~]pentacosa[16,18,24]trien]-15′-one 13′,13′-dioxide] | 0.192 | 149 | 
C[C@@H]1[C@@H](C)CCC[C@@](O)(CCN2CC(F)(F)C2)[C@@H]2CC[C@H]2CN2C[C@@]3(CCCc4cc(Cl)ccc43)COc3ccc(cc32)C(=O)NS1(=O)=O [Example 100094, (1S,3′R,6′R,7′R,11′S,12′R)-6-chloro-7′-(2-(3,3-difluoro-1-azetidinyl)ethyl)-7′-hydroxy-11′,12′-dimethyl-3,4-dihydro-2H,15′H-spiro[naphthalene-1,22′-[20]oxa[13]thia[1,14]diazatetracyclo [14.7.2.0~3,6~.0~19,24~]pentacosa[16,18,24]trien]-15′-one 13′,13′-dioxide] | 3.83 |  | IC50 [2, 3]: 4380 nM
CO[C@@]1(CCN2CC(C)(N(C)C)C2)/C=C/C[C@H](C)[C@@H](C)S(=O)(=O)NC(=O)c2ccc3c(c2)N(C[C@@H]2CC[C@H]21)C[C@@]1(CCCc2cc(Cl)ccc21)CO3 [Example 100431, (1S,3′R,6′R,7′S,8′E,11′S,12′R)-6-chloro-7′-(2-(3-(dimethylamino)-3-methyl-1-azetidinyl)ethyl)-7′-methoxy-11′,12′-dimethyl-3,4-dihydro-2H,15′H-spiro[naphthalene-1,22′-[20]oxa[13]thia[1,14]diazatetracyclo [14.7.2.0~3,6~.0~19,24~]pentacosa[8,16,18,24]tetraen]-15′-one 13′,13′-dioxide] | 0.043 | 290 | 
C=C(F)C[C@@]1(OC)/C=C/C[C@H](C)[C@@H](C)S(=O)(=O)NC(=O)c2ccc3c(c2)N(C[C@@H]2CC[C@H]21)C[C@@]1(CCCc2cc(Cl)ccc21)CO3 [Example 100568, (1S,3′R,6′R,7′R,8′E,11′S,12′R)-6-chloro-7′-(2-fluoro-2-propen-1-yl)-7′-methoxy-11′,12′-dimethyl-3,4-dihydro-2H,15′H-spiro[naphthalene-1,22′-[20]oxa[13]thia[1,14]diazatetracyclo [14.7.2.0~3,6~.0~19,24~]pentacosa[8,16,18,24]tetraen]-15′-one 13′,13′-dioxide] | 0.431 | 1540 | 
CO[C@]1(CN2CCN3CCCC[C@@H]3C2)/C=C/C[C@H](C)[C@@H](CCN2CCOCC2)S(=O)(=O)NC(=O)c2ccc3c(c2)N(C[C@@H]2CC[C@H]21)C[C@@]1(CCCc2cc(Cl)ccc21)CO3 [Example 365, (1S,3′R,6′R,7′R,8′E,11′S,12′R)-6-chloro-7′-methoxy-11′-methyl-12′-(2-(4-morpholinyl)ethyl)-7′-((9aR)-octahydro-2H-pyrido[1,2-a]pyrazin-2-ylmethyl)-3,4-dihydro-2H,15′H-spiro[naphthalene-1,22′-[20]oxa[13]thia[1,14]diazatetracyclo [14.7.2.0~3,6~.0~19,24~]pentacosa[8,16,18,24]tetraen]-15′-one 13′,13′-dioxide] |  |  | IC50 [1, 6]: 0.104 nM; IC50 [2, 7]: 32 nM
CC[C@]1(OCCN2CCOCC2)/C=C/C[C@H](C)[C@@H](C)S(=O)(=O)NC(=O)c2ccc3c(c2)N(C[C@@H]2CC[C@H]21)C[C@@]1(CCCc2cc(Cl)ccc21)CO3 (single isomer, unassigned) [Example 100481] | 0.094 | 152 | 
C[C@@H]1[C@@H](C)C/C=C/[C@](O)(Cc2nccs2)[C@@H]2CC[C@H]2CN2C[C@@]3(CCCc4cc(Cl)ccc43)COc3ccc(cc32)C(=O)NS1(=O)=O [Example 100245, (1S,3′R,6′R,7′R,8′E,11′S,12′R)-6-chloro-7′-hydroxy-11′,12′-dimethyl-7′-(1,3-thiazol-2-ylmethyl)-3,4-dihydro-2H,15′H-spiro[naphthalene-1,22′-[20]oxa[13]thia[1,14]diazatetracyclo [14.7.2.0~3,6~.0~19,24~]pentacosa[8,16,18,24]tetraen]-15′-one 13′,13′-dioxide] |  |  | IC50 [1]: 1.71 nM; IC50 [2, 3]: 1980 nM
C[C@@H]1[C@@H](C)CCC[C@](O)(CS(C)(=O)=O)[C@@H]2CC[C@H]2CN2C[C@@]3(CCCc4cc(Cl)ccc43)COc3ccc(cc32)C(=O)NS1(=O)=O (stereo in doubt) [Example 100161] | 0.355 | 757 | 
CO[C@]1(c2cncc(CN3CCOCC3)c2)/C=C/C[C@H](C)[C@@H](C)S(=O)(=O)NC(=O)c2ccc3c(c2)N(C[C@@H]2CC[C@H]21)C[C@@]1(CCCc2cc(Cl)ccc21)CO3 (stereo in doubt) [Example 100521] | 0.197 | 296 | 
C[C@@H]1[C@@H](C)CCC[C@@]2(COCCN2)[C@@H]2CC[C@H]2CN2C[C@@]3(CCCc4cc(Cl)ccc43)COc3ccc(cc32)C(=O)NS1(=O)=O [Example 100269, (1S,3′R,6′R,7′S,11′S,12′R)-6-chloro-11′,12′-dimethyl-3,4-dihydro-2H,15′H-dispiro[naphthalene-1,22′-[20]oxa[13]thia[1,14]diazatetracyclo [14.7.2.0~3,6~.0~19,24~]pentacosa[16,18,24]triene-7′,3″-[1,4]oxazinan]-15′-one 13′,13′-dioxide] | 0.908 | 1230 | 
